Here are results for two molecules from article PMC4076284, “A Characteristic Back Support Structure in the Bisphenol A-Binding Pocket in the Human Nuclear Receptor ERRγ” (PLoS ONE, 2014).

Experiment [1] addresses T1, Lys430Ala-ERRγ mutant receptor (GST-fused LBD) (Homo sapiens, UniProt P62508, K430A). Conditions: heterogeneous binding assay using [^3H]BPA.
Description: (§1) Wild-type and mutant ERRγ-LBD proteins were expressed as glutathione S-transferase (GST)-fused preparations in E. coli BL21 as described previously [1], [24], [25]. […] After loading the protein solution, the column was incubated for 1 h at 4°C, and then washed three times with PBS containing 0.5% (v/v) Triton X-100 and once with sonication buffer (50 mM Tris-HCl (pH 8.0), 50 mM NaCl, 1 mM EDTA, and 1 mM dithiothreitol). […] The protein concentrations were determined by the Bradford method [26].
(§2) Competitive binding assays were performed in the presence of GST-fused wild-type ERRγ-LBD or its mutants at the most appropriate concentration of each receptor. […] Radioactivity was determined on a liquid scintillation counter TopCount NXT (PerkinElmer Life Sciences Japan Co., Ltd., Tokyo, Japan). To estimate the binding affinity, the IC50 values (the concentrations for the half-maximal inhibition) were calculated from the dose-response curves evaluated by the nonlinear analysis program ALLFIT [30]. Each assay was performed at least three times.
The target of experiment [2] is T2, His434Phe-ERRγ mutant receptor (GST-fused LBD) (Homo sapiens, UniProt P62508, H434F). As to conditions: heterogeneous competitive binding.
Description: as §1, §2
Experiment [3] has as its target T3, Val313Ala-ERRγ mutant receptor (GST-fused LBD) (Homo sapiens, UniProt P62508, V313A).
T3 construct: wild-type ERRγ-LBD encoding 222-458 residues was generated by PCR; made in house; host or cells: E. coli BL21
The experiment is described as follows: Competitive binding assay using [^3H]BPA. As to conditions: competitive binding (Table 3, BPA value from ref 24).
Description: as §1, §2

The target of experiment [4] is T4, Asn346Tyr-ERRγ mutant receptor (GST-fused LBD) (Homo sapiens, UniProt P62508, N346Y).
T4 construct: wild-type ERRγ-LBD encoding 222-458 residues; made in house; host or cells: E. coli BL21
The experiment is described as follows: Competitive binding assay using [^3H]BPA.
Description: as §1, §2

Experiment [5] has as its target T5, Val313Leu-ERRγ mutant receptor (GST-fused LBD) (Homo sapiens, UniProt P62508, V313L).
T5 construct: wild-type ERRγ-LBD encoding 222-458 residues was generated by PCR; made in house; host or cells: E. coli BL21
Conditions: BPA value re-collected from the previous report, read-out: Receptor binding potency IC50; cited from earlier work.

Experiment [6] concerns the target Asn346Gln-ERRγ mutant receptor (GST-fused LBD) (Homo sapiens, UniProt P62508, N346Q). The experiment is described as follows: biochemical.
Description: as §1, §2
Experiment [7] concerns the target Ile349Ala-ERRγ mutant receptor (GST-fused LBD) (Homo sapiens, UniProt P62508, I349A). The experiment is described as follows: biochemical.
Description: as §2
Experiment [8] addresses GST-fused wild-type ERRγ-LBD (Homo sapiens, UniProt P62508). The experiment is described as follows: biochemical. As to conditions: [^3H]BPA 5 nM, 4°C, 2 h.
Description: as §1, §2
In experiment [9] the target is T2, His434Phe-ERRγ mutant receptor (GST-fused LBD). Description: biochemical.
Description: as §1, §2
Experiment [10] deals with T6, Asn346Gly-ERRγ mutant receptor (GST-fused LBD) (Homo sapiens, UniProt P62508, N346G).
T6 construct: wild-type ERRγ-LBD encoding 222-458 residues; made in house; host or cells: E. coli BL21
Description: Competitive binding assay using [^3H]BPA.
Description: as §1, §2

A further experiment has as its system ERRγ mutant receptors. Description: [^3H]BPA saturation and/or competitive binding: ranges stated over several ERRγ mutants or both assays. The arrangement: species or system human. As to conditions: for Activity decrements vs wild-type: competitive binding (Table 2). On the procedure:
The reaction mixture was incubated at 4°C for 2 h with the receptor proteins—GST-fused wild-type ERRγ-LBD or its mutants—in 100 µl of binding buffer [10 mM HEPES (pH 7.5), 50 mM NaCl, 2 mM MgCl2, 1 mM EDTA, 2 mM CHAPS, and 2 mg/ml γ-globulin]. The assay was performed with or without the addition of unlabelled BPA (final concentration of 1.0×10^-5 M) to quantify the specific and nonspecific binding. After incubation with 100 µl of 1% dextran-coated charcoal (DCC) (Sigma-Aldrich) in PBS (pH 7.4) for 10 min at 4°C, the DCC-absorbed free radio-ligand was removed by the direct vacuum filtration method using a 96-well filtration plate (MultiScreen^HTS HV, 0.45 µm pore size; Millipore, Billerica, MA, USA) for the bound/free separation. Radioactivity was determined on a liquid scintillation counter (LS6500; Beckman Coulter, Fullerton, CA, USA).
The saturation binding assay was performed at least three times.
Each assay was performed at least three times.

In experiment [11] the target is Leu342Ile-ERRγ mutant receptor (GST-fused LBD) (Homo sapiens, UniProt P62508, L342I). The experiment is described as follows: biochemical.
Description: as §1, §2
In experiment [12] the target is Leu345Ala-ERRγ mutant receptor (GST-fused LBD) (Homo sapiens, UniProt P62508, L345A). The experiment is described as follows: biochemical.
Description: as §1, §2
The target in experiment [13] is Asn346Ala-ERRγ mutant receptor (GST-fused LBD) (Homo sapiens, UniProt P62508, N346A). Description: biochemical.
Description: as §1, §2
Experiment [14] deals with Ile349Leu-ERRγ mutant receptor (GST-fused LBD) (Homo sapiens, UniProt P62508, I349L). Description: biochemical.
Description: as §2
The target in experiment [15] is T7, Ile310Ala-ERRγ mutant receptor (GST-fused LBD) (Homo sapiens, UniProt P62508, I310A).
T7 construct: wild-type ERRγ-LBD encoding 222-458 residues was generated by PCR; made in house; host or cells: E. coli BL21
As to conditions: BPA value re-collected from the previous report, read-out: Receptor binding potency IC50; cited from earlier work.

In experiment [16] the target is Ile349Val-ERRγ mutant receptor (GST-fused LBD) (Homo sapiens, UniProt P62508, I349V). Description: biochemical.
Description: as §2
The target of experiment [17] is Leu345Val-ERRγ mutant receptor (GST-fused LBD) (Homo sapiens, UniProt P62508, L345V). The experiment is described as follows: biochemical.
Description: as §1, §2
Experiment [18] deals with T1, Lys430Ala-ERRγ mutant receptor (GST-fused LBD). Description: biochemical.
Description: as §1, §2
Experiment [19] addresses Leu342Val-ERRγ mutant receptor (GST-fused LBD) (Homo sapiens, UniProt P62508, L342V). The experiment is described as follows: biochemical.
Description: as §1, §2
The target of experiment [20] is T8, Tyr330Ala-ERRγ mutant receptor (GST-fused LBD) (Homo sapiens, UniProt P62508, Y330A).
T8 construct: wild-type ERRγ-LBD encoding 222-458 residues was generated by PCR; made in house; host or cells: E. coli BL21
The experiment is described as follows: Competitive binding assay using [^3H]BPA.
Description: as §1, §2

For experiment [21], the target named is T3, Val313Ala-ERRγ mutant receptor (GST-fused LBD). Conditions: BPA value re-collected from the previous report, read-out: Receptor binding potency IC50; cited from earlier work.
In experiment [22] the target is T9, Tyr330Phe-ERRγ mutant receptor (GST-fused LBD) (Homo sapiens, UniProt P62508, Y330F).
T9 construct: wild-type ERRγ-LBD encoding 222-458 residues was generated by PCR; made in house; host or cells: E. coli BL21
Description: Competitive binding assay using [^3H]BPA.
Description: as §1, §2

The target of experiment [23] is T10, Leu345Ile-ERRγ mutant receptor (GST-fused LBD) (Homo sapiens, UniProt P62508, L345I).
T10 construct: wild-type ERRγ-LBD encoding 222-458 residues; made in house; host or cells: E. coli BL21
Description: Competitive binding assay using [^3H]BPA.
Description: as §1, §2

The mark [24] stands for this setting: read-out: Receptor binding potency IC50.

T10 sequence (P62508 222-458 L345I limits assumed): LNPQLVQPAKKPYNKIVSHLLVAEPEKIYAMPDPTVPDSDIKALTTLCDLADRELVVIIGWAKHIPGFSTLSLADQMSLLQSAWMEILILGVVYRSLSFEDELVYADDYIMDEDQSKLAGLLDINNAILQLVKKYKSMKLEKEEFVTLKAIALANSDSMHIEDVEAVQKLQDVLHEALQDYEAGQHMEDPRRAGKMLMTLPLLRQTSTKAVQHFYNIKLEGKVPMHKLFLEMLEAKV
T4 sequence (P62508 222-458 N346Y): as the sequence (P62508 222-458 L345I limits assumed) above, with I124L, N125Y counted along it
T3 sequence (P62508 222-458 V313A): as the sequence (P62508 222-458 L345I limits assumed) above, with V92A, I124L counted along it
T6 sequence (P62508 222-458 N346G): as the sequence (P62508 222-458 L345I limits assumed) above, with I124L, N125G counted along it
T9 sequence (P62508 222-458 Y330F): as the sequence (P62508 222-458 L345I limits assumed) above, with Y109F, I124L counted along it
T2 sequence (P62508 222-458 H434F): as the sequence (P62508 222-458 L345I limits assumed) above, with I124L, H213F counted along it
Chain of GST-fused wild-type ERRγ-LBD (P62508 222-458): as the sequence (P62508 222-458 L345I limits assumed) above, with I124L counted along it
T8 sequence (P62508 222-458 Y330A): as the sequence (P62508 222-458 L345I limits assumed) above, with Y109A, I124L counted along it
T1 sequence (P62508 222-458 K430A): as the sequence (P62508 222-458 L345I limits assumed) above, with I124L, K209A counted along it
Chain of Leu342Val-ERRγ mutant receptor (GST-fused LBD) (P62508 222-458 L342V limits assumed): as the sequence (P62508 222-458 L345I limits assumed) above, with L121V, I124L counted along it
Chain of Asn346Gln-ERRγ mutant receptor (GST-fused LBD) (P62508 222-458 N346Q): as the sequence (P62508 222-458 L345I limits assumed) above, with I124L, N125Q counted along it
Chain of Leu345Val-ERRγ mutant receptor (GST-fused LBD) (P62508 222-458 L345V limits assumed): as the sequence (P62508 222-458 L345I limits assumed) above, with I124V counted along it
Chain of Asn346Ala-ERRγ mutant receptor (GST-fused LBD) (P62508 222-458 N346A): as the sequence (P62508 222-458 L345I limits assumed) above, with I124L, N125A counted along it
Chain of Ile349Ala-ERRγ mutant receptor (GST-fused LBD) (P62508 222-458 I349A limits assumed): as the sequence (P62508 222-458 L345I limits assumed) above, with I124L, I128A counted along it
Chain of Leu345Ala-ERRγ mutant receptor (GST-fused LBD) (P62508 222-458 L345A limits assumed): as the sequence (P62508 222-458 L345I limits assumed) above, with I124A counted along it
Chain of Ile349Leu-ERRγ mutant receptor (GST-fused LBD) (P62508 222-458 I349L): as the sequence (P62508 222-458 L345I limits assumed) above, with I124L, I128L counted along it
T5 sequence (P62508 222-458 V313L limits assumed): as the sequence (P62508 222-458 L345I limits assumed) above, with V92L, I124L counted along it
Chain of Leu342Ile-ERRγ mutant receptor (GST-fused LBD) (P62508 222-458 L342I limits assumed): as the sequence (P62508 222-458 L345I limits assumed) above, with L121I, I124L counted along it
T7 sequence (P62508 222-458 I310A limits assumed): as the sequence (P62508 222-458 L345I limits assumed) above, with I89A, I124L counted along it
Chain of Ile349Val-ERRγ mutant receptor (GST-fused LBD) (P62508 222-458 I349V limits assumed): as the sequence (P62508 222-458 L345I limits assumed) above, with I124L, I128V counted along it

`CC/C(=C(\c1ccc(O)cc1)c1ccc(OCCN(C)C)cc1)c1ccccc1` [4-OHT, 4-hydroxytamoxifen]: the “Reinforced binding potency vs wild-type” value in experiment [1] was “about 40%”. For the same molecule, in experiment [2], the “Reduction in receptor-binding potency vs wild-type” value was “more than 40 fold”.
Regarding `CC(C)(c1ccc(O)cc1)c1ccc(O)cc1` [BPA, bisphenol A], the “Reduction in binding affinities vs wild-type” value in experiment [3] is given as “approximately 5 fold”. Further, the “Reduction in binding affinity vs wild-type” value in experiment [4] (Asn346Tyr mutant, competitive binding) is listed as “approximately 9 fold”. Besides, the IC50 is 45.2 ± 8.91 nM in experiment [4] (setting [24]); 16 ± 1.41 nM in [5]; 56.1 ± 7.42 nM in experiment [6]; 20.1 ± 3.24 nM in [7]; 4.96 ± 0.71 nM in experiment [8] (Receptor binding potency IC50, wild-type ERRγ (Table 2)); 5.64 ± 0.17 nM in experiment [8] (Receptor binding potency IC50, wild-type ERRγ (Table 3, back support series)). The IC50 in [9] came out at 13.7 ± 0.66 nM; in [10] (setting [24]), 42.4 ± 5.44 nM; in [11], 24.5 ± 4.53 nM; in [12] it was 60.6 ± 11.2 nM; in experiment [13], 20.1 ± 3.41 nM; in experiment [14], 10.4 ± 0.64 nM. Also, the IC50 in [15] was 21.9 ± 0.99 nM; in experiment [16] it was 11.7 ± 1.5 nM; in experiment [17] it was 154 ± 17.5 nM; in experiment [18] it was 9.7 ± 0.37 nM; in [19], 34.7 ± 5.38 nM; in [20] (setting [24]) it was 361 ± 39.3 nM. In addition, the figures for the IC50 in experiment [21], in experiment [22] (setting [24]) and in experiment [23] (setting [24]) were 26.8 ± 2.12 nM, 16.1 ± 0.58 nM and 158 ± 19.8 nM, respectively. Besides, in [10] (Asn346Gly mutant, homologous competitive binding), the “Binding affinity relative to the wild-type ERRγ (IC50)” value is on record as “ca. 12%”. Besides, the “Reduced binding affinity vs wild-type” value in the experiment with ERRγ mutant receptors (Asn346Ala mutant, saturation and competitive binding (Tables 1 and 2)) is 2–4 times. For the same molecule, the “Reduction in the affinity vs wild-type” value in the experiment with ERRγ mutant receptors (Asn346Gln mutant, saturation and competitive binding (Tables 1 and 2)) is on record as 3-10 fold. Moreover, the “Activity decrements vs wild-type” value with ERRγ mutant receptors (Asn346 mutant receptors (Ala, Gly, Gln, Tyr)) is listed as 4.0–11.3 times; with ERRγ mutant receptors (Ile349Val and Ile349Leu mutants) it was 110-135%. In addition, the “Reduction in affinity vs wild-type” value in the experiment with ERRγ mutant receptors (Ile349Ala mutant, saturation and competitive binding (Tables 1 and 2)) was 3-4 fold. Further, the “Reduction in IC50 value vs wild-type” value is 5–7 fold with ERRγ mutant receptors (Leu342Val and Leu342Ile mutants, homologous competitive binding (Table 2)); “more than 60 fold” in [20] (Tyr330Ala mutant, homologous competitive binding); “approximately 3 fold” in [22] (Tyr330Phe mutant, homologous competitive binding). Besides, in the experiment on ERRγ mutant receptors (Leu342Val and Leu342Ile mutants, saturation binding (Table 1)), the “Reduction in the binding affinity vs wild-type” value is 3–4 fold. Further, the “Decrease in binding vs wild-type” value in [23] (Leu345Ile mutant, homologous competitive binding) is on record as “approximately 30 fold”.

A word on the IC50: it is the concentration at which inhibition is half-maximal.
